The results in this text go back to ChEMBL document CHEMBL5042510, “Structure-Guided Discovery of Aminoquinazolines as Brain-Penetrant and Selective LRRK2 Inhibitors” (J Med Chem, 2022).

Broadly, the inhibition in vivo is the relative decrease from the control value, in per cent. Broadly, the IC50 is the midpoint of a concentration-inhibition curve. For orientation: efflux ratio means the permeability from basolateral to apical divided by that in the opposite direction, in the common usage. The Papp A→B is the apparent permeability from the apical to the basolateral side of a cell layer. A word on the clearance: it is the rate of elimination divided by the concentration. One may read the MRT as a mean duration of stay, worked out from the concentration-time curve. By bioavailability is commonly meant the share of a dose that reaches the circulation, judged against a reference dose that is usually intravenous.

A short description of data set [1]: Unbound brain-to-plasma concentration ratio in rat at 2.5 uM incubated for 4 hrs by equilibrium dialysis method. The conditions noted are these: brain and plasma (unbound), read-out: K(p,uu,brain). It is filed as ADME, cell-free. (In equilibrium dialysis free small molecules cross a membrane that holds back macromolecules.)
A short description of data set [2]: Unbound brain-to-plasma concentration ratio in non-human primates administered orally and measured after 120 mins by LC/MS/MS analysis. It is filed as ADME. The conditions noted are these: po, read-out: K(p,uu,brain).
The nature of data set [3]: Unbound brain-to-plasma concentration ratio in CD rat 1 to 100 mg/kg, po measured after 120 mins by LC/MS/MS analysis. The class given is ADME, organism-based. Conditions: brain and plasma (unbound), dose 1-100 mg/kg, read-out: K(p,uu,brain).
Data set [4] is described as follows: In vivo inhibition of LRRK2 in CD rat assessed as reduction in phosphorylation at Ser935 residue in striatum at 10 mg/kg, po measured after 2 hrs by MSD assay. It is filed as functional.
Data set [5] concerns the target Leucine-rich repeat serine/threonine-protein kinase 2 (Homo sapiens, UniProt Q5S007, G2019S). The experiment in a line: Inhibition of recombinant N-terminal GST-fused LRRK2 […] mutant (970 to 2527 residues) (unknown origin) preincubated with enzyme for 15 mins followed by fluorescein-labeled LRRKtide peptide substrate and ATP addition for 90 mins by TR-FRET assay. In general terms: In TR-FRET formats the signal depends on donor and acceptor labels being close together.

Data set [6] has as its system Leucine-rich repeat serine/threonine-protein kinase 2 (Homo sapiens), Q5S007 [G2019S]. Briefly: Inhibition of LRRK2 […] mutant expressed in human SH-SY5Y cells assessed as unbound concentration required for inhibition of phosphorylation of LRRK2 at Ser935 residue incubated for 90 mins by MSD assay. It is filed as cell-based.
The test system of data set [7] is rat Mdr1a (P-gp). The experiment in a line: Efflux ratio of apparent permeability across basolateral to apical side over apical to basolateral side in rat Mdr1a-transfected pig LLC-PK1 cells at 0.1 to 1 uM measured after 3 hrs by LC/MS/MS analysis. The conditions noted are these: dose 0.1-1 µM. The class given is ADME, cell-based, Sus scrofa.
Data set [8] deals with rat Mdr1a (P-gp). The experiment in a line: Apparent permeability from apical to basolateral side in rat Mdr1a-transfected pig LLC-PK1 cells at 0.1 to 1 uM measured after 3 hrs by LC/MS/MS analysis. The class given is ADME, cell-based, Sus scrofa. Conditions: dose 0.1-1 µM.
The nature of data set [9]: Intrinsic clearance in human hepatocytes at 0.3 uM incubated for 90 mins by LC/MS/MS analysis. It is filed as ADME, cell-based, Hepatocyte. Conditions: read-out: CLH.
Data set [10] is described as follows: Intrinsic clearance in rat hepatocytes at 0.3 uM incubated for 90 mins by LC/MS/MS analysis. The class given is ADME, cell-based, Hepatocyte. The conditions noted are these: read-out: CLH.
Data set [11] in a line: Total plasma clearance in Wistar Han rat at 2 mg/kg, iv by LC-MS/MS analysis. The class given is ADME, organism-based.
Data set [12] is described as follows: Intrinsic clearance in Wistar Han rat at 2 mg/kg, iv by LC-MS/MS analysis. The class given is ADME, organism-based. Conditions: in vivo.
A short description of data set [13]: MRT in Wistar Han rat at 2 mg/kg, iv by LC-MS/MS analysis. It is filed as ADME, organism-based. The conditions noted are these: in vivo.
Data set [14] is described as follows: Intrinsic clearance in dog hepatocytes at 0.3 uM incubated for 90 mins by LC/MS/MS analysis. The class given is ADME, cell-based, Canis lupus familiaris, Hepatocyte. The conditions noted are these: read-out: CLH.
Data set [15] in a line: Total plasma clearance in Beagle dog at 2 mg/kg, iv by LC-MS/MS analysis. It is filed as ADME, organism-based, Canis lupus familiaris.
Data set [16] in a line: Intrinsic clearance in Beagle dog at 2 mg/kg, iv by LC-MS/MS analysis. The class given is ADME, organism-based, Canis lupus familiaris. The conditions noted are these: in vivo.
Data set [17] in a line: MRT in Beagle dog at 2 mg/kg, iv by LC-MS/MS analysis. The class given is ADME, organism-based, Canis lupus familiaris. Conditions: in vivo.
The nature of data set [18]: Oral bioavailability in Wistar Han rat at 10 mg/kg by LC-MS/MS analysis. The class given is ADME, organism-based. The conditions noted are these: in vivo.
A short description of data set [19]: Oral bioavailability in Beagle dog by LC-MS/MS analysis. Conditions: in vivo. It is filed as ADME, organism-based, Canis lupus familiaris.
Data set [20] relates to mouse Bcrp. Briefly: Efflux ratio of apparent permeability across basolateral to apical over apical to basolateral side in mouse Bcrp-transfected dog MDCK-II cells at 0.1 to 1 uM measured after 3 hrs by LC/MS/MS analysis. It is filed as ADME, cell-based, Canis lupus familiaris. Conditions: dose 0.1-1 µM.
In data set [21] the target is Voltage-gated inwardly rectifying potassium channel KCNH2 (Homo sapiens, UniProt Q12809). The experiment in a line: Inhibition of human ERG by voltage clamp assay. The class given is toxicity.
Chain of Voltage-gated inwardly rectifying potassium channel KCNH2 (Q12809 whole entry): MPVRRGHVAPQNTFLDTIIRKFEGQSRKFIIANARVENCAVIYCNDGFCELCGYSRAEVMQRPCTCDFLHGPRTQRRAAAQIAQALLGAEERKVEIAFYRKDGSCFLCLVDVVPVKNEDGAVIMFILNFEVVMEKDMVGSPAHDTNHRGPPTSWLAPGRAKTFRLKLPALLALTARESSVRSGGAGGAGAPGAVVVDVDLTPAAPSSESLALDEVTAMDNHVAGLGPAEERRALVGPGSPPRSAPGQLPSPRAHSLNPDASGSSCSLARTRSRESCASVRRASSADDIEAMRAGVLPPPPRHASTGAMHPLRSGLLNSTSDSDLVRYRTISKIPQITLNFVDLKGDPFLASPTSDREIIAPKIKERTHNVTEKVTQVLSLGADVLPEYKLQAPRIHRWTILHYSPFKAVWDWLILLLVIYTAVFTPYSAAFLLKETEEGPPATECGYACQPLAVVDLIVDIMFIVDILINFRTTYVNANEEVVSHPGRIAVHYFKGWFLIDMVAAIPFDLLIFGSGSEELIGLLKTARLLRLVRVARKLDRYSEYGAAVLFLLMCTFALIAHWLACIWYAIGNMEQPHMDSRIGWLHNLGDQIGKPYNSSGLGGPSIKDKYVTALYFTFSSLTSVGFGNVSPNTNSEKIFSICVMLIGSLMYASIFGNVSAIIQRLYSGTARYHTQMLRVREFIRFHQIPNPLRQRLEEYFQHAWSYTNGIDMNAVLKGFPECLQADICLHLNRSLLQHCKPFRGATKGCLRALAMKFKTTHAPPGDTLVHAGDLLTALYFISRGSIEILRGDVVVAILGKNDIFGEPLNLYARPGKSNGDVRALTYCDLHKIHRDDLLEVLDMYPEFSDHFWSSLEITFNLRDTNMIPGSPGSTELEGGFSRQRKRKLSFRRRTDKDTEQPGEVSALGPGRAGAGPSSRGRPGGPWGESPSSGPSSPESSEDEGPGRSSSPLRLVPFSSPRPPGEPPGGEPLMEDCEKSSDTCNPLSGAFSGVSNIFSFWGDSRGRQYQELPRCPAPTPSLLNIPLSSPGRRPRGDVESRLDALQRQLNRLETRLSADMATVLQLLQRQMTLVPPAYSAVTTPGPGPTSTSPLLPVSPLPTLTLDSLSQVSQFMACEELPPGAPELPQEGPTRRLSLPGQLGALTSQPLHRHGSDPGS

Chain of Leucine-rich repeat serine/threonine-protein kinase 2 (Q5S007 whole entry G2019S, the tested form may be a part): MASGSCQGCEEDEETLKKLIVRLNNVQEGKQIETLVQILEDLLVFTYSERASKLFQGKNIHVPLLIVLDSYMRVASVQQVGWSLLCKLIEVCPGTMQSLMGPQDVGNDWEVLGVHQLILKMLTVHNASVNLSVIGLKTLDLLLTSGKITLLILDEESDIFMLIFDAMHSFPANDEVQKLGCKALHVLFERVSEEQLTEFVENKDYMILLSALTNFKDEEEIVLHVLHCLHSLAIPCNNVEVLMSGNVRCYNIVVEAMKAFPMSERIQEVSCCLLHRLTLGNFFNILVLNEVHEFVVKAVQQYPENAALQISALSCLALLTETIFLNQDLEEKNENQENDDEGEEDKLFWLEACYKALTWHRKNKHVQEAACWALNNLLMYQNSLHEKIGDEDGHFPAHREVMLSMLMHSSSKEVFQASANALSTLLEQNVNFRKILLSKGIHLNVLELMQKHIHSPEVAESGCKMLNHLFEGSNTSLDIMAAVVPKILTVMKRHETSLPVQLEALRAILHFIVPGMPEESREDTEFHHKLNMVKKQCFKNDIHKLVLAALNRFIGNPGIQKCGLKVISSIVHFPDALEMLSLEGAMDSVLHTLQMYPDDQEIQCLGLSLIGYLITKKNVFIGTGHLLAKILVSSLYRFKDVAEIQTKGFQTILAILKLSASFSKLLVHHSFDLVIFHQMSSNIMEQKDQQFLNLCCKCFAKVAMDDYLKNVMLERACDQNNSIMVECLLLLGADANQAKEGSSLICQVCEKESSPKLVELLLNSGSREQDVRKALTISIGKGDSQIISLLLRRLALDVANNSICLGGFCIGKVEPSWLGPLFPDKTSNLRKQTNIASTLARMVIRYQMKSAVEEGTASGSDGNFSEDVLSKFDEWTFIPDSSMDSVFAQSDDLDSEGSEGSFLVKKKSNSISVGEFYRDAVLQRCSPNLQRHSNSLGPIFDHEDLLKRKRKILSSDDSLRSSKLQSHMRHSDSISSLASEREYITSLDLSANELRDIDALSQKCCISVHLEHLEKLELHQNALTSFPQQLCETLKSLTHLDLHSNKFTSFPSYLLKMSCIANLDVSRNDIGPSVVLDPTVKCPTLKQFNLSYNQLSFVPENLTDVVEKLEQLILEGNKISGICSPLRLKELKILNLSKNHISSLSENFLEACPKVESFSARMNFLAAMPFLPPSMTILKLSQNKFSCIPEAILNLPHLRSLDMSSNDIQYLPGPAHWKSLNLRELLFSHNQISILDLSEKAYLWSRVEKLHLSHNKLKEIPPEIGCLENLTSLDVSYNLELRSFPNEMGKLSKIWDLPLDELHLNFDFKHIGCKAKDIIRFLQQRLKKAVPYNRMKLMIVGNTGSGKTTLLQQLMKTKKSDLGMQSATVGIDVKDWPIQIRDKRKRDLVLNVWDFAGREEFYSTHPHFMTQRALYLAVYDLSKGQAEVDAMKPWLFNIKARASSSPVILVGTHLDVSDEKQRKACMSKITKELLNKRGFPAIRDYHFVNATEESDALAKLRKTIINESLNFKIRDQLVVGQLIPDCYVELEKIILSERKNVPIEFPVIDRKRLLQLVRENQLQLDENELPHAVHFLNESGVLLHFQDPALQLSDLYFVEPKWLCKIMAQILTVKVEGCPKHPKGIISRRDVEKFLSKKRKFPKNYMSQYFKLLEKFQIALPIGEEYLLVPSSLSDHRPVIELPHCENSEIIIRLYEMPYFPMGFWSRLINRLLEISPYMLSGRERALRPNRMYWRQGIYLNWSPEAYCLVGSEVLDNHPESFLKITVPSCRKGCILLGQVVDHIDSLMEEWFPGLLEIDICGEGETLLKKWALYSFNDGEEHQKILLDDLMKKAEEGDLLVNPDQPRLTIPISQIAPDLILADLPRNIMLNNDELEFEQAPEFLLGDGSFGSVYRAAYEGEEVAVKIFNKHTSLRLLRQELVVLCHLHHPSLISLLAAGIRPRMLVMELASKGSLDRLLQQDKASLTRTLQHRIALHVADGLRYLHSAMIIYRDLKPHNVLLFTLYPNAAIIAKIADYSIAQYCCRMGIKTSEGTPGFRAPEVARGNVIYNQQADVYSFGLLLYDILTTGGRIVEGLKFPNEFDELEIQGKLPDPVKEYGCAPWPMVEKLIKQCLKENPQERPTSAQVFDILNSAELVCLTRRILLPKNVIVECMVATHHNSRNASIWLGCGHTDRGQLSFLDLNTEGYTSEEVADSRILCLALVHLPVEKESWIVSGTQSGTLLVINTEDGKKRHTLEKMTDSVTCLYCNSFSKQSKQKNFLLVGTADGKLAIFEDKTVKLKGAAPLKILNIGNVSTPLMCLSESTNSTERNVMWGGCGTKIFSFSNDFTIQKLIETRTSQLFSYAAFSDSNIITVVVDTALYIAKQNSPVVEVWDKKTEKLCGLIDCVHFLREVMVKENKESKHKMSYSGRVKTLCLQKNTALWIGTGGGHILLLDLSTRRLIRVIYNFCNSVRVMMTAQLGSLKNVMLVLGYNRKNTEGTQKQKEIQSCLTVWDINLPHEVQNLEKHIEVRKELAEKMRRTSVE
Chain of Leucine-rich repeat serine/threonine-protein kinase 2 (Homo sapiens), Q5S007 [G2019S] (Q5S007 whole entry G2019S): as the sequence (Q5S007 whole entry G2019S, the tested form may be a part) above

Take `C[C@@H]1CN(c2cc(-c3n[nH]c4ccc(OC5(C)CC5)cc34)ncn2)C[C@H](C)O1` [MLi-2]: the Kp uu at 4 h, 2.5 µM in [1] was 0.49. Further, the Kp uu at 2 h in data set [2] is 0.37; in data set [3] it was 0.7. Further, in [4], the inhibition in vivo at 10 mg/kg came to 93%.

On to `Cc1c(Nc2ncc3cc(Cl)c(C4CCN(C5COC5)CC4)cc3n2)cnn1C1CC1`, for which the Kp uu at 4 h, 2.5 µM in [1] is 0.2. Also, the IC50 worked out at 0.00065 µM in data set [5] and 15 µM in [21]. In addition, in [6], the fIC50 is 9.9 nM. For the same molecule, the efflux ratio at 3 h, up to 1 µM in data set [7] amounted to 3; in [20], 4.2. Further, in [8], the Papp A→B at 3 h, up to 1 µM was determined as 35 ×10⁻⁶ cm/s. The CLint scaled at 0.3 µM in data set [9] came out at 49 mL/min/kg; in data set [10], 457 mL/min/kg; in [14] it was 294 mL/min/kg. Further, the clearance was 14 mL/min/kg in data set [11] and 23 mL/min/kg in data set [15]. Besides, the results for the CL in data set [12] and in data set [16] were 260 mL/min/kg and 477 mL/min/kg, respectively. Moreover, the values for the MRT in data set [13] and in data set [17] were 2.1 h and 2 h, respectively. Further, the bioavailability in [18] stood at 26%; in data set [19], 38%.
